From patent publication US20230027361A1, “METTL3 MODULATORS” (priority 2019, published 2023)

target: METTL3/METTL14 (Homo sapiens, UniProt Q86U44); assay: METTL3-14 Standard Enzyme Assay (METTL3 biochemical assay); details: METTL3 biochemical assay; read-out: METTL3 IC50
Procedure, shortened: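 Tritium transfer from ³H-SAM (100 nM) to biotinylated RNA (100 nM) captured on streptavidin flashplates and counted by scintillation. Enzyme complex (2.5 nM) with compound, 5 min preincubation, 30 min reaction at ambient temperature, HEPES pH 7.5 buffer, stopped by excess unlabeled SAM.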

Chain of METTL3/METTL14 (Q86U44 whole entry, species assumed): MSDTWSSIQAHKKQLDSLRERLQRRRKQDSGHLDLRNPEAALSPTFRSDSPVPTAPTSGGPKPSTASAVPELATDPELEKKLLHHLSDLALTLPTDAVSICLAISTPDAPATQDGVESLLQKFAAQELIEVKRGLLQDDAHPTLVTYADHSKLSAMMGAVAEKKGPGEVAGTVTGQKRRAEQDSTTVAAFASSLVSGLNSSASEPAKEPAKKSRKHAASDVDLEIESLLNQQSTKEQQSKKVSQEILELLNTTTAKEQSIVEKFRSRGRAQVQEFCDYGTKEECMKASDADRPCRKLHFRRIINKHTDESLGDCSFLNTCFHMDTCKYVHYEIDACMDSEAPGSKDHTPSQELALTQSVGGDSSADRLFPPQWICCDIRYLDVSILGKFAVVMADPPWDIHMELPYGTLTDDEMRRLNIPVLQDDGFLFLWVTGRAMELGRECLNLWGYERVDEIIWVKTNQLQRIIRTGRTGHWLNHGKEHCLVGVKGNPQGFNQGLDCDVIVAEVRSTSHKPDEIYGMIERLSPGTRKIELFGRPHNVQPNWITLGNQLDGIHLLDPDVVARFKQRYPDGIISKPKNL
Chain of METTL3/METTL14 (Q9HCE5 whole entry partner, species assumed): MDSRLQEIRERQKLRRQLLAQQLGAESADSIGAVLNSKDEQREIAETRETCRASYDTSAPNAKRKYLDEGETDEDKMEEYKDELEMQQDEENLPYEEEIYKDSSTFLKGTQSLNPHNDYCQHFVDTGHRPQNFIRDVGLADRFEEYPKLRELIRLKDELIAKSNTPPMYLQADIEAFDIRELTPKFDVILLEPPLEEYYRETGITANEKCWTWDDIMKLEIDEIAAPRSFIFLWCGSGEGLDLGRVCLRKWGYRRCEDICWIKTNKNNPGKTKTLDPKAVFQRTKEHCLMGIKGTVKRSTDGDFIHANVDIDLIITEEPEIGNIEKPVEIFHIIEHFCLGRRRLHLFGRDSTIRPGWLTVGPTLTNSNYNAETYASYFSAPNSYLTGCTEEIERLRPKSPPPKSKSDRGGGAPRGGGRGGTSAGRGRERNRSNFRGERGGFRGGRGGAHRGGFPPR

| SMILES | IC50 [µM] |
| --- | --- |
| Cc1cn2ccc(CC[C@H]3C[C@@H](n4ccc5c(N)ncnc54)[C@H](O)[C@@H]3O)cc2n1 [I-84] | > 1 |
| CNc1ccc2ccc(OC[C@@H]3C[C@@H](O)[C@H](n4cc(C5CCCC5)c5c(N)ncnc54)O3)cc2n1 [I-141] | 0.1 to 1 |
| CNc1ccc2ccc(OC[C@H]3O[C@@H](n4ccc5c(N)nc(C(=O)OC)nc54)[C@@H](F)[C@@H]3O)cc2n1 [I-223] | > 1 |

same assay, conditions: read-out: METTL3 IC50; METTL3 biochemical assay

| SMILES | IC50 [µM] |
| --- | --- |
| CNc1ccc2ccc(OC[C@H]3O[C@@H](n4cc(-c5ccnn5C)c5c(N)ncnc54)[C@@H](F)[C@@H]3O)cc2n1 [I-37] | 0.01 to 0.1 |
| CNc1ccc2ccc(OC[C@H]3O[C@@H](n4cc(-c5cccnc5)c5c(N)ncnc54)[C@@H](F)[C@@H]3O)cc2n1 [I-40] | 0.01 to 0.1 |
| CNc1ccc2ccc(OC[C@H]3O[C@@H](n4cc(-c5cc(F)cc(F)c5)c5c(N)ncnc54)[C@@H](F)[C@@H]3O)cc2n1 [I-43] | 0.1 to 1 |

target: METTL1/WDR4 (Homo sapiens, UniProt Q9UBP6); assay: METTL1 Assay (METTL1 biochemical assay); details: not given
Procedure, shortened: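 Radiometric methyltransfer by METTL1/WDR4 (6.25 nM f.c., 5 min preincubation) at ambient temperature in HEPES pH 7.5, KCl, MgCl2, DTT; started with 25 nM 3′-biotinylated RNA and 60 nM 3H-SAM, run 20 min, quenched with 15 μM cold SAM. Product captured on streptavidin flashplates (2 h, 25° C), counted by scintillation.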

Chain of METTL1/WDR4 (Q9UBP6 whole entry, species assumed): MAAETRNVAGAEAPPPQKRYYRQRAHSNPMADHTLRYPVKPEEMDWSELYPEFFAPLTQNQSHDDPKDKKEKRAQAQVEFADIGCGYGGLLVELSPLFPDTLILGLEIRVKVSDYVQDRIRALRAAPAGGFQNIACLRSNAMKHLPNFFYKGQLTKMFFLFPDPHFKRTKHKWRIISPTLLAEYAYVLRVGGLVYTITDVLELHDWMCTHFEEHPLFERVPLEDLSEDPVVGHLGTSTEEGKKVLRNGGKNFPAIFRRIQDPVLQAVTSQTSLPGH
Chain of METTL1/WDR4 (P57081 whole entry partner, species assumed): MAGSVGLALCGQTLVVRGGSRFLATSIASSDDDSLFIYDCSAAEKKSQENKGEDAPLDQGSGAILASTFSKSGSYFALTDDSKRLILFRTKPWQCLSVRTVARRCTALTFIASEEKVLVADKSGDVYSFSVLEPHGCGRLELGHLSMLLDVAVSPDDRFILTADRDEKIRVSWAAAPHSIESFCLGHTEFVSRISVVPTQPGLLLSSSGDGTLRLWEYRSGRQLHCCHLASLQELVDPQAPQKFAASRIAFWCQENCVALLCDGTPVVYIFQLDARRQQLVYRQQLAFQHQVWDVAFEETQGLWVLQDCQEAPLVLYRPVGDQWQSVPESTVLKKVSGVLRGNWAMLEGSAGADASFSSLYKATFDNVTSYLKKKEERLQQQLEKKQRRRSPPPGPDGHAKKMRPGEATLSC

| SMILES | IC50 [µM] |
| --- | --- |
| CNc1ccc2ccc(OC[C@H]3O[C@@H](n4ccc5c(N)nc(C(=O)OC)nc54)[C@@H](F)[C@@H]3O)cc2n1 [I-223] | > 1 |

same assay, conditions: METTL1 biochemical assay; read-out: METTL1 IC50

| SMILES | IC50 [µM] |
| --- | --- |
| CNc1ccc2ccc(OC[C@H]3O[C@@H](n4cc(-c5ccnn5C)c5c(N)ncnc54)[C@@H](F)[C@@H]3O)cc2n1 [I-37] | > 1 |
| CNc1ccc2ccc(OC[C@H]3O[C@@H](n4cc(-c5cccnc5)c5c(N)ncnc54)[C@@H](F)[C@@H]3O)cc2n1 [I-40] | > 1 |
| CNc1ccc2ccc(OC[C@H]3O[C@@H](n4cc(-c5cc(F)cc(F)c5)c5c(N)ncnc54)[C@@H](F)[C@@H]3O)cc2n1 [I-43] | > 1 |
| Cc1cn2ccc(CC[C@H]3C[C@@H](n4ccc5c(N)ncnc54)[C@H](O)[C@@H]3O)cc2n1 [I-84] | > 1 |

same assay, conditions: read-out: METTL1 IC50; METTL1 biochemical assay

| SMILES | IC50 [µM] |
| --- | --- |
| CNc1ccc2ccc(OC[C@@H]3C[C@@H](O)[C@H](n4cc(C5CCCC5)c5c(N)ncnc54)O3)cc2n1 [I-141] | > 1 |

target: T1, METTL16 (Homo sapiens, UniProt Q86W50); assay: METTL16 Assay (METTL16 biochemical assay); details: read-out: METTL16 IC50
T1 sequence (Q86W50 1-562): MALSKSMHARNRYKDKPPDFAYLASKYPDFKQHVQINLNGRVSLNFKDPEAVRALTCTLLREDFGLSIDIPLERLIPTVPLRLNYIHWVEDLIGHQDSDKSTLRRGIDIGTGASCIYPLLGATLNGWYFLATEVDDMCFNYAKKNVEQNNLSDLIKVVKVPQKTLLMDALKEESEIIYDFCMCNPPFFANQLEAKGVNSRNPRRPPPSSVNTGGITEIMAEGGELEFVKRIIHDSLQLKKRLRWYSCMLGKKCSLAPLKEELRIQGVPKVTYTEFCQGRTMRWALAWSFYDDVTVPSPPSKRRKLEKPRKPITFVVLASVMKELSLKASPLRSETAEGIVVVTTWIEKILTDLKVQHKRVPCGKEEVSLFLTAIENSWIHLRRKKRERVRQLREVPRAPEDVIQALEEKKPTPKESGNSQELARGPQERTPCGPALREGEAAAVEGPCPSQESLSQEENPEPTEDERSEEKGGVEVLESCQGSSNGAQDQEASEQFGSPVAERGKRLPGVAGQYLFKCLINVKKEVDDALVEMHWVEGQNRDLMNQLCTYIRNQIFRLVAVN
Procedure: Assays were performed in a 25 μl-volume in 384-well V-bottom polypropylene microplates (Greiner Bio-One, cat. No. 781280) at ambient temperature. Optimized 1× assay buffer was 20 mM HEPES pH 7.5, 50 mM KCl, 1 mM DTT, 0.01% Tween, 0.01% BSG, 0.004 U/μl RNAseOUT (cat. No. 10777019, ThermoFisher Scientific, Waltham, Mass.). For compound screening METTL16 (final concentration, f.c.=100 nM) was added using a Multidrop Combi (ThermoFisher Scientific, Waltham, Mass.) and preincubated for 5 min. Reactions were started by adding 3′ biotinylated RNA ([…]-biotin) (f.c.=50 nM), 3H-SAM (f.c.=200 nM) and non-radiolabeled SAM (f.c.=800 nM) substrates. Reactions proceeded for 20 minutes and were quenched with excess non-radioactive SAM (f.c.=100 μM). The reactions were then transferred to streptavidin-coated flashplates and incubated for 2 hours at 25° C. Following two washing cycles with 0.1% Tween-20, the plates were sealed and read on a TopCount (PerkinElmer, Waltham, Mass.) plate-based scintillation counter. For determination of kinetic parameters, reaction times were optimized so that measurements were taken during the initial velocity phase of the reaction.

| SMILES | IC50 [µM] |
| --- | --- |
| CNc1ccc2ccc(OC[C@H]3O[C@@H](n4cc(-c5ccnn5C)c5c(N)ncnc54)[C@@H](F)[C@@H]3O)cc2n1 [I-37] | > 1 |
| CNc1ccc2ccc(OC[C@H]3O[C@@H](n4cc(-c5cccnc5)c5c(N)ncnc54)[C@@H](F)[C@@H]3O)cc2n1 [I-40] | > 1 |
| CNc1ccc2ccc(OC[C@H]3O[C@@H](n4cc(-c5cc(F)cc(F)c5)c5c(N)ncnc54)[C@@H](F)[C@@H]3O)cc2n1 [I-43] | > 1 |
| Cc1cn2ccc(CC[C@H]3C[C@@H](n4ccc5c(N)ncnc54)[C@H](O)[C@@H]3O)cc2n1 [I-84] | > 1 |
| CNc1ccc2ccc(OC[C@@H]3C[C@@H](O)[C@H](n4cc(C5CCCC5)c5c(N)ncnc54)O3)cc2n1 [I-141] | > 1 |
| CNc1ccc2ccc(OC[C@H]3O[C@@H](n4ccc5c(N)nc(C(=O)OC)nc54)[C@@H](F)[C@@H]3O)cc2n1 [I-223] | > 1 |

target: PRMT5-MEP50 (Homo sapiens, UniProt O14744); assay: PRMT5 Assay (PRMT5 biochemical assay); details: PRMT5 biochemical assay; read-out: PRMT5 IC50
Procedure, shortened: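 Radiometric methyltransferase read-out: after 60 min reaction, excess unlabelled SAM (15 μM) stops turnover and biotinylated H4 peptide (100 nM) carrying 3H-methyl from 250 nM 3H-SAM is captured on streptavidin flashplates (2 h, 25° C) for scintillation counting. Enzyme, 2.5 nM PRMT5-MEP50, was preincubated 5 min with compound in pH 8.0 Tris buffer with DTT and Tween.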

Chain of PRMT5-MEP50 (O14744 whole entry): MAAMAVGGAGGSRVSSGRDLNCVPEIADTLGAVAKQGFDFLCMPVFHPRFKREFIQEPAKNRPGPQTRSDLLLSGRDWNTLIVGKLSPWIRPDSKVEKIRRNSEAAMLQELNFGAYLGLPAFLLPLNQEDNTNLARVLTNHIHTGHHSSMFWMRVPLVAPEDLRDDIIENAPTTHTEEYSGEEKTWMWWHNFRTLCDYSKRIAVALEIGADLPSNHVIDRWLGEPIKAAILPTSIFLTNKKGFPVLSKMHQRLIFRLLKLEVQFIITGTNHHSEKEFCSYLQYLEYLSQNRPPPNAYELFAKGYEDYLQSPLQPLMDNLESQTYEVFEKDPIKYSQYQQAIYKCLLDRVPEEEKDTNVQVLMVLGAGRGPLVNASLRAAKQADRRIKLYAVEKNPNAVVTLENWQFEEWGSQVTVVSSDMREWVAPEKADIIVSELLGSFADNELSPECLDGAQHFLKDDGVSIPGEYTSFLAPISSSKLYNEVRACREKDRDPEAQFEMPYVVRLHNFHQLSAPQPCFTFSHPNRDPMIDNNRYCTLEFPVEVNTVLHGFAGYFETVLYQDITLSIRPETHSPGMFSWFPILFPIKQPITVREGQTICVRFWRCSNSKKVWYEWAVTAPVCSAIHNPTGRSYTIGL
Chain of PRMT5-MEP50 (Q9BQA1 whole entry partner): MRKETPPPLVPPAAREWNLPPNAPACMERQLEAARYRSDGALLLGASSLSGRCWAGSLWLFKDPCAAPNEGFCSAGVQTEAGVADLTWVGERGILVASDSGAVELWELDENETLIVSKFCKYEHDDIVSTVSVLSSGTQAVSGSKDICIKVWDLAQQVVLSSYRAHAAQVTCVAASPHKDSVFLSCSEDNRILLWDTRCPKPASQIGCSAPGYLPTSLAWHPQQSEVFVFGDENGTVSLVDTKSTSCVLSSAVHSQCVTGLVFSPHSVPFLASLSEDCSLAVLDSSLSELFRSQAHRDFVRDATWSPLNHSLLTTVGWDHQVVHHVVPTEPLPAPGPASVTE

| SMILES | IC50 [µM] |
| --- | --- |
| Cc1cn2ccc(CC[C@H]3C[C@@H](n4ccc5c(N)ncnc54)[C@H](O)[C@@H]3O)cc2n1 [I-84] | < 0.01 |
| CNc1ccc2ccc(OC[C@@H]3C[C@@H](O)[C@H](n4cc(C5CCCC5)c5c(N)ncnc54)O3)cc2n1 [I-141] | 0.1 to 1 |
| CNc1ccc2ccc(OC[C@H]3O[C@@H](n4ccc5c(N)nc(C(=O)OC)nc54)[C@@H](F)[C@@H]3O)cc2n1 [I-223] | > 1 |

same assay, conditions: read-out: PRMT5 IC50; PRMT5 biochemical assay

| SMILES | IC50 [µM] |
| --- | --- |
| CNc1ccc2ccc(OC[C@H]3O[C@@H](n4cc(-c5ccnn5C)c5c(N)ncnc54)[C@@H](F)[C@@H]3O)cc2n1 [I-37] | 0.1 to 1 |
| CNc1ccc2ccc(OC[C@H]3O[C@@H](n4cc(-c5cccnc5)c5c(N)ncnc54)[C@@H](F)[C@@H]3O)cc2n1 [I-40] | 0.1 to 1 |
| CNc1ccc2ccc(OC[C@H]3O[C@@H](n4cc(-c5cc(F)cc(F)c5)c5c(N)ncnc54)[C@@H](F)[C@@H]3O)cc2n1 [I-43] | 0.1 to 1 |
